# According to patent US10517889B2, “Modulators of SMAD7 expression” (Ionis Pharmaceuticals, Inc., priority 2017, dated 2019):
# Strand notation (5' to 3'): a small letter for the sugar, then the base; units joined by * are phosphorothioate-linked, units joined directly phosphodiester-linked; [ ] holds rarer units or linkages, { } end groups; capitals alone tell only the bases. k = constrained ethyl (cEt); [5mC] = 5-methylcytosine; d = 2'-deoxy (DNA)
# Tested on: human SMAD7 mRNA
# Test: Antisense inhibition of human SMAD7 mRNA expression in Hep3B cells by 3-10-3 cEt gapmers, 10,000 nM, electroporation (Example 2)
# Assay type: cell-based
# Conditions: Hep3B cells, 10,000 nM antisense oligonucleotide, electroporation, approximately 24 hours, RT-PCR primer probe set RTS5062, relative to untreated control cells
# Experimental: Antisense oligonucleotides were designed to target human SMAD7 mRNA and were tested for their effects on SMAD7 mRNA expression in vitro. The antisense oligonucleotides were tested in a series of experiments that had similar culture conditions, as described below. ION 771576, described in the studies above and which is a 5-10-5 MOE gapmer, was also included in these assays. Cultured Hep3B cells at a density of 20,000 cells per well were transfected using electroporation with 10,000 nM antisense oligonucleotide. After a treatment period of approximately 24 hours, RNA was isolated from the cells and SMAD7 mRNA levels were measured by quantitative real-time PCR. Primer probe set RTS5062 was used to measure human SMAD7 mRNA levels. SMAD7 mRNA levels were adjusted according to total RNA content, as measured by RIBOGREEN®. Results are presented as percent inhibition of SMAD7 mRNA expression, relative to untreated control cells.
# The newly designed chimeric antisense oligonucleotides in the Tables below were designed as 3-10-3 cEt gapmers. The gapmers are 16 nucleosides in length, wherein the central gap segment comprises often 2′-deoxynucleosides and is flanked by wing segments on the 5′ direction and the 3′ direction comprising three nucleosides each. Each nucleoside in the 5′ wing segment and each nucleoside in the 3′ wing segment has a cEt sugar modification. The internucleoside linkages throughout each gapmer are phosphorothioate (P═S) linkages. All cytosine residues throughout each gapmer are 5-methylcytosines.
# “Start site” indicates the 5′-most nucleoside to which the gapmer is targeted in the human gene sequence. “Stop site” indicates the 3′-most nucleoside to which the gapmer is targeted human gene sequence. […] Some of the oligonucleotides presented were complementary to SMAD7 mRNA sequences RefSeqNo. NM_001190821.1 (designated herein as SEQ ID NO: 3) or RefSeqNo. NM_001190822.1 (designated herein as SEQ ID NO: 4), and are presented in a separate table shown below.
row,Substance,% Inhibition [%]
1,799898 (antisense kG*kT*k[5mC]*dT*d[5mC]*dT*dT*dA*d[5mC]*d[5mC]*dT*d[5mC]*dA*k[5mC]*k[5mC]*k[5mC]) [compound 799898],37
2,800038 (kT*kG*k[5mC]*dT*d[5mC]*d[5mC]*dT*d[5mC]*d[5mC]*d[5mC]*dT*d[5mC]*dG*k[5mC]*kT*kG; antisense) [compound 800038],2
3,799959 (antisense kA*kG*k[5mC]*dT*dT*dG*dT*dG*dG*dA*dG*dA*dG*kT*kG*k[5mC]) [compound 799959],1
4,798910 (k[5mC]*kA*k[5mC]*dG*d[5mC]*dG*dG*d[5mC]*dT*dA*d[5mC]*d[5mC]*dG*kG*k[5mC]*kT; antisense) [compound 798910],42

# Same assay, conditions: Hep3B cells, electroporation with 10,000 nM antisense oligonucleotide, approximately 24 hours, RTS5062, percent inhibition of SMAD7 mRNA relative to untreated control cells
row,Substance,% Inhibition [%]
1,799829 (antisense kG*kA*kG*dT*dT*dT*dG*d[5mC]*dG*dA*dG*d[5mC]*d[5mC]*kA*kA*kG) [compound 799829],75
2,799571 (k[5mC]*kA*kG*dA*dA*dA*dA*dG*dA*dT*dG*d[5mC]*dA*kG*kT*kT; antisense) [compound 799571],46
3,799570 (kA*kA*kA*dA*dG*dA*dT*dG*d[5mC]*dA*dG*dT*dT*k[5mC]*kA*k[5mC]; antisense) [compound 799570],39
4,799626 (kA*kG*k[5mC]*dT*dT*dG*d[5mC]*dA*d[5mC]*d[5mC]*d[5mC]*dA*dG*k[5mC]*kA*kA; antisense) [compound 799626],41

# Same assay, conditions: Hep3B cells, electroporation with 10,000 nM antisense oligonucleotide, approximately 24 hours, SMAD7 mRNA by RT-PCR (RTS5062), relative to untreated control cells
row,Substance,% Inhibition [%]
1,798699 (antisense k[5mC]*kG*k[5mC]*dA*dG*d[5mC]*dT*d[5mC]*dG*d[5mC]*d[5mC]*dT*d[5mC]*k[5mC]*kT*k[5mC]) [compound 798699],51
2,799413 (antisense kA*kT*kT*dA*d[5mC]*dT*dG*dA*dT*dG*d[5mC]*dT*dA*kA*kA*kT) [compound 799413],34
3,800023 (kA*kG*kG*dA*dA*dG*dA*dG*d[5mC]*d[5mC]*dT*dT*dG*kG*k[5mC]*k[5mC]; antisense) [compound 800023],0
4,772610 (kG*kG*k[5mC]*dA*dA*dA*dA*dG*d[5mC]*d[5mC]*dA*dT*dT*k[5mC]*k[5mC]*k[5mC]; antisense) [compound 772610],34
5,800047 (antisense kA*k[5mC]*k[5mC]*d[5mC]*dA*d[5mC]*dT*dG*dA*dA*dA*d[5mC]*d[5mC]*kT*kG*kG) [compound 800047],28
6,790485 (k[5mC]*kA*k[5mC]*d[5mC]*dT*dG*dA*dA*d[5mC]*dA*d[5mC]*dT*dT*kT*kG*k[5mC]; antisense) [compound 790485],26
7,830147 (antisense kG*kA*k[5mC]*dT*dG*dG*dT*d[5mC]*dT*dT*d[5mC]*dA*d[5mC]*k[5mC]*kA*kG) [compound 830147],0

# Same assay, conditions: Hep3B cells, electroporation with 10,000 nM antisense oligonucleotide, approximately 24 hours, primer probe set RTS5062, relative to untreated control cells
Substance,% inhibition of SMAD7 mRNA expression [%],% Inhibition [%]
799197 (antisense k[5mC]*kT*k[5mC]*dA*dA*dA*dG*d[5mC]*dA*d[5mC]*dT*dA*d[5mC]*kA*kA*kT) [compound 799197],34,–
798807 (kA*kT*k[5mC]*dT*dG*dA*dA*dA*dG*d[5mC]*d[5mC]*d[5mC]*d[5mC]*k[5mC]*k[5mC]*kA; antisense) [compound 798807],64,–
798711 (antisense k[5mC]*kG*kG*d[5mC]*d[5mC]*d[5mC]*d[5mC]*dA*dT*dG*d[5mC]*dG*d[5mC]*kT*k[5mC]*kG) [compound 798711],59,–
798655 (kG*kG*k[5mC]*d[5mC]*d[5mC]*dG*d[5mC]*dG*d[5mC]*d[5mC]*d[5mC]*dT*dG*k[5mC]*kG*k[5mC]; antisense) [compound 798655],21,–
799125 (antisense kT*k[5mC]*k[5mC]*d[5mC]*d[5mC]*dG*d[5mC]*dT*dT*dG*d[5mC]*dT*dG*kG*k[5mC]*k[5mC]) [compound 799125],62,–
799420 (antisense k[5mC]*kA*kA*dG*dA*d[5mC]*d[5mC]*dA*dA*dA*dA*dA*dT*kT*k[5mC]*kA) [compound 799420],32,–
799477 (antisense kG*kT*kT*d[5mC]*d[5mC]*dA*dT*dA*dG*dG*d[5mC]*dA*dG*k[5mC]*k[5mC]*kA) [compound 799477],4,–
799236 (kT*kA*kA*dA*d[5mC]*dT*d[5mC]*d[5mC]*dT*dT*dT*dA*dG*kA*kA*kA; antisense) [compound 799236],–,45
799267 (antisense kG*kT*kT*d[5mC]*dG*dG*d[5mC]*d[5mC]*dT*dT*d[5mC]*d[5mC]*dA*kT*k[5mC]*k[5mC]) [compound 799267],62,–
772700 (k[5mC]*kT*kT*dT*dA*dA*dT*dA*dA*dA*dT*d[5mC]*dT*k[5mC]*kA*kG; antisense) [compound 772700],–,24
799377 (antisense kT*kT*kG*d[5mC]*dA*dG*dG*dT*dG*dA*d[5mC]*dT*dG*kG*kA*kG) [compound 799377],15,–
799163 (antisense kA*kA*kG*dT*dA*dT*d[5mC]*dA*dT*dA*d[5mC]*dG*dA*kG*kT*kG) [compound 799163],45,–
799208 (kT*kG*kA*dT*dG*d[5mC]*dT*dT*dA*dT*dA*dA*dA*kA*k[5mC]*kG; antisense) [compound 799208],–,15
799027 (kA*k[5mC]*k[5mC]*dG*d[5mC]*dT*dT*dG*dG*dG*dA*d[5mC]*dT*kG*k[5mC]*kA; antisense) [compound 799027],46,–
799249 (antisense kG*k[5mC]*kG*dG*d[5mC]*d[5mC]*dA*d[5mC]*dG*dA*d[5mC]*dA*dG*kT*kA*kT) [compound 799249],26,–
799102 (antisense k[5mC]*kG*kG*dG*dA*dA*dA*dA*dA*d[5mC]*d[5mC]*dT*dG*kA*kT*kG) [compound 799102],–,34
799265 (antisense k[5mC]*kT*kT*d[5mC]*d[5mC]*dA*dT*d[5mC]*d[5mC]*dA*dA*d[5mC]*dT*k[5mC]*kT*k[5mC]) [compound 799265],3,–
798985 (antisense kG*kA*k[5mC]*d[5mC]*dG*d[5mC]*d[5mC]*d[5mC]*d[5mC]*d[5mC]*d[5mC]*dT*dT*k[5mC]*kA*kT) [compound 798985],41,–
772696 (kT*k[5mC]*kT*d[5mC]*dT*d[5mC]*dA*dA*dA*dG*d[5mC]*dA*d[5mC]*kT*kA*k[5mC]; antisense) [compound 772696],56,–

# Same assay, conditions: Hep3B cells, electroporation, 10,000 nM antisense oligonucleotide, approximately 24 hours, RTS5062, relative to untreated control cells
row,Substance,% inhibition of SMAD7 mRNA expression [%]
1,799735 (antisense kT*k[5mC]*k[5mC]*dA*d[5mC]*dG*dG*dG*dA*dG*dT*dG*dG*kA*kA*kG) [compound 799735],0
2,799304 (antisense kG*kA*kA*dA*dG*dA*d[5mC]*dA*dA*dA*d[5mC]*d[5mC]*dA*k[5mC]*kA*k[5mC]) [compound 799304],54
3,799660 (antisense kT*kG*kG*dG*dA*dG*d[5mC]*dA*d[5mC]*dT*dT*d[5mC]*dT*kT*kT*kT) [compound 799660],35

# Same assay, conditions: Hep3B cells, electroporation, 10,000 nM, approximately 24 hours; 3-10-3 cEt gapmers targeting SEQ ID NO: 3 and 4
row,Substance,% inhibition of SMAD7 mRNA expression [%]
1,829940 (kG*kT*k[5mC]*dA*dG*dT*dT*dG*dG*dT*dT*dT*dG*kA*kG*kA; antisense) [compound 829940],14

# Same assay, conditions: SMAD7 mRNA, Hep3B cells, 10,000 nM antisense oligonucleotide, electroporation, approximately 24 hours, primer probe set RTS5062, relative to untreated control cells
row,Substance,% Inhibition [%]
1,829793 (kT*k[5mC]*kT*dT*d[5mC]*d[5mC]*d[5mC]*dG*dT*dA*dA*dG*dA*kT*kT*k[5mC]; antisense) [compound 829793],41
2,829785 (antisense kA*kT*kG*d[5mC]*d[5mC]*dT*dG*dA*dG*dA*dT*d[5mC]*d[5mC]*kG*kG*k[5mC]) [compound 829785],27
3,772734 (kA*kG*kG*d[5mC]*dA*dG*dG*dG*d[5mC]*d[5mC]*dG*d[5mC]*dG*kA*kG*kG; antisense) [compound 772734],16

# Same assay, conditions: SMAD7 mRNA, Hep3B cells, electroporation with 10,000 nM antisense oligonucleotide, approximately 24 hours, primer probe set RTS5062, relative to untreated control cells
row,Substance,% Inhibition [%]
1,829859 (antisense kT*kT*kT*dT*dG*d[5mC]*dT*d[5mC]*d[5mC]*dG*d[5mC]*dA*d[5mC]*k[5mC]*kT*kT) [compound 829859],39
